Measurements from US7691572B2, “Method and kit for detecting resistance to antiviral drugs” (priority 1998, dated 2010).

System: plasma HIV-1 reverse transcriptase
Assay: Amp-RT assay, inhibition by 3TC-TP, plasma samples of patients
Type: biochemical
Conditions: for Inhibition of RT(%): 5 uM 3TC-TP
Description: The phenotypic assay used in this example was based on the analysis of the susceptibility of HIV-1 reverse transcriptase activity from plasma to inhibition by 3TC-TP.
For culture supernatant, 10 μl were directly used for the reverse transcriptase reaction. The analysis of phenotypic resistance in plasma samples was made in plasma-free virus pellets as described in the protocol set forth in FIG. 1B.
Amp-RT detects reverse transcriptase activity by using a heterologous RNA template derived from the encephalomyocarditis virus (EMCV), a complementary DNA oligoprimer, and PCR amplification of reverse transcriptase-generated EMCV cDNA. […] To determine the susceptibility of the reverse transcriptase to 3TC-TP, an additional Amp-RT reaction was made in the presence of 3TC-TP, with concentrations of 3TC-TP ranging from 0.1 to 10 μM. […] PCR amplification of reverse transcriptase products was made as follows after the addition of 200 μM of each dNTP. A volume of 50 μl of PCR buffer containing 2.5 units of Taq polymerase, 100 ng of the sense primer EMCF1, and 200 μM of each dNTP was added to the reverse transcriptase mixture.
A total of 30 EDTA-plasma samples from 15 HIV-1-infected patients from the Veteran Administration Medical Center, Decatur, Ga., were studied. The samples were collected from patients before and during anti-retroviral therapy with 3TC. The Amp-RT-based phenotypic assay was done under code with respect to date of serial bleed and reverse transcriptase genotype. One plasma specimen from a blood donor who tested antibody negative for HIV-1/2, HTLV-I/II was used as an assay negative control.

[1] = 5 μM 3TC-TP, pretreatment samples (n=12)
[2] = sample 1E, 12 weeks, AZT/3TC, V/M184
[3] = sample 1F, 18 weeks, AZT/3TC, V184
[4] = sample 2F, 12 weeks, AZT/3TC, V184
[5] = sample 3F, 12 weeks, AZT/3TC, M/V184
[6] = sample 3G, 21 weeks, AZT/3TC, V184
[7] = sample 6B, 12 weeks, AZT/3TC, V184
[8] = sample 8B, 8 weeks, AZT/3TC, V184
[9] = sample 9F, 12 weeks, AZT/3TC, V184
[10] = sample 10A, 4 weeks, AZT/3TC, M184
[11] = sample 10C, 12 weeks, AZT/3TC, M/V184
[12] = sample 10G, 52 weeks, AZT/3TC, V184
[13] = sample 11A, 12 weeks, AZT/3TC, V/M184
[14] = sample 11C, 36 weeks, AZT/3TC, V184
[15] = sample 12E, 28 weeks, AZT/3TC, V184
[16] = sample 13A, Pre, d4T, M184, N69, R70
[17] = sample 13F, 60 weeks, d4T/3TC/IND, V184
[18] = sample 14A, 1 week, AZT/3TC, M184, D69
[19] = sample 14F, 44 weeks, IND/3TC, V184
[20] = sample 15A, Pre, AZT, M184, D69
[21] = sample 15D, 40 weeks, AZT/3TC/IND, V184
[22] = 5 μM 3TC-TP, samples with 184V only
[23] = 5 μM 3TC-TP, samples with mixtures of wild type and resistant genotypes

## Nc1ccn([C@@H]2CS[C@H](COP(=O)(O)OP(=O)(O)OP(=O)(O)O)O2)c(=O)n1 [3TC-TP, 3TC-5′-triphosphate]
[1]
  mean reverse transcriptase inhibition: 98.7%
  median reverse transcriptase inhibition: 99.8%
Sample 1B, Pre, AZT/ddC, M184
  Inhibition of RT(%): 100%
[2]
  Inhibition of RT(%): 75.6%
  RT activity With 3TC-TP (5 uM): 5.1 × 10^−7 units/ml
[3]
  Inhibition of RT(%): 75.9%
  RT activity With 3TC-TP (5 uM): 3.3 × 10^−8 units/ml
Sample 2B, Pre, AZT/ddC, M184
  Inhibition of RT(%): 99.7%
  RT activity With 3TC-TP (5 uM): 6.3 × 10^−9 units/ml
[4]
  Inhibition of RT(%): 68%
  RT activity With 3TC-TP (5 uM): 4.7 × 10^−7 units/ml
Sample 3B, Pre, AZT, M184
  Inhibition of RT(%): 99.4%
  RT activity With 3TC-TP (5 uM): 1.7 × 10^−8 units/ml
[5]
  Inhibition of RT(%): 92.3%
  RT activity With 3TC-TP (5 uM): 1.2 × 10^−9 units/ml
[6]
  Inhibition of RT(%): 0%
  RT activity With 3TC-TP (5 uM): 1.0 × 10^−8 units/ml
Sample 4A, Pre, AZT, M184
  Inhibition of RT(%): 99.9%
  RT activity With 3TC-TP (5 uM): 1.2 × 10^−10 units/ml
Sample 5A, Pre, AZT, M184
  Inhibition of RT(%): 100%
Sample 6A, Pre, None, M184
  Inhibition of RT(%): 99.9%
  RT activity With 3TC-TP (5 uM): 3.6 × 10^−8 units/ml
[7]
  Inhibition of RT(%): 34.7%
  RT activity With 3TC-TP (5 uM): 1.5 × 10^−5 units/ml
Sample 7A, Pre, None, M/I184
  Inhibition of RT(%): 100%
Sample 8A, Pre, AZT, M184
  Inhibition of RT(%): 99.9%
  RT activity With 3TC-TP (5 uM): 5.7 × 10^−8 units/ml
[8]
  Inhibition of RT(%): 15%
  RT activity With 3TC-TP (5 uM): 4.3 × 10^−5 units/ml
Sample 9A, Pre, d4T, M184
  Inhibition of RT(%): 97.8%
  RT activity With 3TC-TP (5 uM): 6.3 × 10^−8 units/ml
[9]
  Inhibition of RT(%): 47%
  RT activity With 3TC-TP (5 uM): 1.1 × 10^−6 units/ml
[10]
  Inhibition of RT(%): 87.8%
  RT activity With 3TC-TP (5 uM): 9.1 × 10^−6 units/ml
[11]
  Inhibition of RT(%): 0%
  RT activity With 3TC-TP (5 uM): 1.9 × 10^−7 units/ml
[12]
  Inhibition of RT(%): 0%
  RT activity With 3TC-TP (5 uM): 3.5 × 10^−5 units/ml
[13]
  Inhibition of RT(%): 29.1%
  RT activity With 3TC-TP (5 uM): 1.3 × 10^−7 units/ml
[14]
  Inhibition of RT(%): 58.5%
  RT activity With 3TC-TP (5 uM): 7.0 × 10^−8 units/ml
Sample 12A, Pre, AZT, M184
  Inhibition of RT(%): 96.3%
  RT activity With 3TC-TP (5 uM): 9.2 × 10^−7 units/ml
[15]
  Inhibition of RT(%): 70%
  RT activity With 3TC-TP (5 uM): 5.1 × 10^−7 units/ml
[16]
  Inhibition of RT(%): 95.9%
  RT activity With 3TC-TP (5 uM): 6.2 × 10^−8 units/ml
[17]
  Inhibition of RT(%): 0%
  RT activity With 3TC-TP (5 uM): 7.4 × 10^−5 units/ml
[18]
  Inhibition of RT(%): 94.7%
  RT activity With 3TC-TP (5 uM): 1.3 × 10^−8 units/ml
[19]
  Inhibition of RT(%): 0%
  RT activity With 3TC-TP (5 uM): 5.1 × 10^−9 units/ml
[20]
  Inhibition of RT(%): 95.5%
  RT activity With 3TC-TP (5 uM): 4.0 × 10^−6 units/ml
[21]
  Inhibition of RT(%): 0%
  RT activity With 3TC-TP (5 uM): 2.4 × 10^−10 units/ml
5 μM 3TC-TP, samples after 1 to 60 weeks of therapy with 3TC (n=18)
  reverse transcriptase inhibition values: less than 95%
[22]
  mean inhibition: 30.8%
  median inhibition: 24.9%
[23]
  mean inhibition: 49.3%
  median inhibition: 52.4%
